Data taken from publication PMC10068313, “Mechanical forces impair antigen discrimination by reducing differences in T‐cell receptor/peptide–MHC off‐rates” (The EMBO Journal, 2022).

Tests used:
1G4 TCR [1] = experiment: Laminar flow chamber (LFC) assay, 1G4 TCR-coated beads over pMHC surface; settings: for force sensitivity parameter xβ, 1G4 TCR: Bell's model fit of off-rates under force (survival at 1 s, corrected for non-specific binding), forces < 120 pN, 6–10 independent experiments combined; for force sensitivity parameter xβ, 1G4 TCR / zero-force off-rate (k0off) from Bell's model, 1G4 TCR: cell-free; for force sensitivity parameter xβ, 1G4 TCR / off-rate / bond type at forces < 20 pN, 1G4 TCR / bond type under force, 1G4 TCR / zero-force off-rate (k0off) from Bell's model, 1G4 TCR: 37°C; for off-rate: survival at 1 s, corrected data; for bond type at forces < 20 pN, 1G4 TCR / bond type under force, 1G4 TCR: LFC; for bond type under force, 1G4 TCR: purified TCR; for zero-force off-rate (k0off) from Bell's model, 1G4 TCR: extrapolated from off-rates under force (survival at 1 s, corrected data); for koff_0: source data of Fig 2E, 1G4 TCR, zero-force off-rate from Bell's model fit
Procedure: In this assay, beads coated with TCR flow over a low density of pMHC while a camera records bead motion (Fig 2A, Movie EV1). […] The duration of TCR/pMHC binding is determined by an automated image analysis algorithm that detects the duration of bead arrests.
We first confirmed that bead arrests were mediated by single bonds. […] These constraints limit the LFC to a range of flow velocities that translate into pulling forces between ~ 5–120 pN with the upper bound determined, in part, by the binding rate and strength of the specific TCR/pMHC interaction. Finally, survival distributions were generated using the duration of individual beads for each TCR/pMHC pair and corrected by the corresponding distribution of arrests without pMHC for each paired velocity. We focus on the first 5 s of the distribution because on longer timescales measurement of bead arrest is often interrupted by a collision from a second bead.
Glass slides were rinsed twice in absolute ethanol then washed in a “piranha” solution composed of 70% H2SO4, 15% water and 15% H2O2 for 10 min, then rinsed with 5 litres of deionized water. […] Glass slides were then mounted in a home‐made multi‐channel thermo‐regulated flow chamber device, forming nine independent chambers of 12 mm length and 2 × 0.250 mm^2 section. Each chamber was then filled with a biotinylated pMHC solution in PBS with 0.1% BSA at chosen concentration, using cascade dilution to deposit in our 9‐chambers apparatus 8 different amounts of pMHC plus one chamber as a negative control. Microspheres (Dynal M‐450 tosly‐activated, Thermo Fisher, France) were rinsed three time in a 0.1 M borate solution, then incubated in a 200 μg/ml solution of anti‐6xHis‐tag antibody (Bio‐Rad, MCA1396, clone AD1.1.10, RRID: AB322084) overnight under constant agitation. Microspheres were rinsed three time in PBS/0.1% BSA then incubated prior to each experiment in a 200 μg/ml solution of 6xHis‐tag TCR.
The device forming nine independent chambers on a common glass slide was thermo‐regulated at 37°C by water circulation, set on an inverted microscope with a 10× lens (Leica, Germany) with a digital CCD camera (UEye, IDS Germany), and chamber entry was connected to the piping. For each independent chamber, the automaton performed cycles, each cycle being an experiment for a given shear flow. The automaton repeated cycles of microspheres agitation, microspheres injection in the chamber, launch of movie recording at 50 frames per seconds with M‐JPEG on‐the‐fly compression, and flow at a given shear for 90 s. Shear value was automatically modified for each new cycle until all chosen shear conditions had been recorded. The chamber was manually disconnected and next chamber was connected, then automaton was re‐launched. Raw data are in the form of movies of microspheres motion. A software suite written in Java as ImageJ plug‐ins retrieves microspheres trajectories and then detects microspheres arrest events using a velocity threshold and record arrests number, arrests duration and distance travelled by sedimented microspheres.
Binding linear densities are calculated as the ratio of the number of arrests on the distance travelled by microspheres sedimented on the chamber surface. Specific binding densities are calculated by subtracting control linear binding density from assay linear binding density for a given shear condition. Duration of arrests was pooled for experiments sharing identical TCR and pMHC molecules, identical amount of pMHC on the surface and identical shear rate, to build survival curves of the arrests. […] Each TCR‐pMHC bond was measured in 8 to 12 independent experiments.

1G4 TCR [2] = tested on: 1G4 TCR; set-up: method as in Robert et al, 2012; settings: ref Robert et al, 2012; cited from earlier work
[3] = target: NYE 3A peptide presented on HLA-A*02:01; experiment: SPR
[4] = target: NYE 6V peptide presented on HLA-A*02:01; experiment: SPR
[5] = target: NYE 4E5E8E peptide presented on HLA-A*02:01; experiment: SPR
[6] = target: NYE 4D peptide presented on HLA-A*02:01; experiment: SPR
[7] = target: NYE 3Y peptide presented on HLA-A*02:01; experiment: SPR
[8] = target: NYE 6T peptide presented on HLA-A*02:01; experiment: SPR
[9] = target: Tax 7T peptide presented on HLA-A*02:01 (human | HTLV-1); experiment: SPR
[10] = target: Tax 7Q peptide presented on HLA-A*02:01 (human | HTLV-1); experiment: SPR
[11] = target: Tax 7R peptide presented on HLA-A*02:01 (human | HTLV-1); experiment: SPR
[12] = target: Tax 5F peptide (printed ) presented on HLA-A*02:01 (human | HTLV-1); experiment: SPR
[13] = target: Tax 5H peptide presented on HLA-A*02:01 (human | HTLV-1); experiment: SPR
1G4 TCR [14] = settings: solution affinity of NYE pMHC for 1G4 TCR used in Fig 4F; ref Pettmann et al, 2021; cited from earlier work

With SLYMWITQV [NYE 3Y] the “force sensitivity parameter xβ, 1G4 TCR” value (1G4 TCR [1]) was 0.06402 nm, the off-rate (1G4 TCR [1]; Force 4.46758 pN) was 0.1572 s⁻¹ and the off-rate (1G4 TCR [1]; Force 11.986 pN) was 0.462 s⁻¹. It also gave an off-rate (1G4 TCR [1]; Force 24.9875 pN) of 0.9162 s⁻¹, an off-rate (1G4 TCR [1]; Force 50.6303 pN) of 1.043 s⁻¹ and an off-rate (1G4 TCR [1]; Force 74.2014 pN) of 1.215 s⁻¹.
For “SLAMWITQV [NYE 3A, NYE peptide variant presented on HLA-A*02:01 (pMHC), ligand of the 1G4 TCR]”, the “force sensitivity parameter xβ, 1G4 TCR” value (1G4 TCR [1]) was -0.016 nm, the “bond type at forces < 20 pN, 1G4 TCR” value (1G4 TCR [1]) was “slip bonds” and the “bond type under force, 1G4 TCR” value (1G4 TCR [1]) was “did not display canonical slip or catch bonds”. For the same substance, the “zero-force off-rate (k0off) from Bell's model, 1G4 TCR” value (1G4 TCR [1]) was 0.42 s⁻¹ and the “bond type under force at 25°C, 1G4 TCR” value (1G4 TCR [2]) was “canonical slip”.
In the case of SLLEEITEV [NYE 4E5E8E], the “force sensitivity parameter xβ, 1G4 TCR” value (1G4 TCR [1]) is reported as 0.06548 nm, the off-rate (1G4 TCR [1]; Force 9.5329 pN) is reported as 0.132 s⁻¹ and the off-rate (1G4 TCR [1]; Force 20.855 pN) is reported as 0.181 s⁻¹. It also gave an off-rate (1G4 TCR [1]; Force 57.9236 pN) of 0.5269 s⁻¹, an off-rate (1G4 TCR [1]; Force 74.4128 pN) of 0.6611 s⁻¹ and an off-rate (1G4 TCR [1]; Force 98.8295 pN) of 0.7569 s⁻¹. The koff_0 (1G4 TCR [1]) was -0.7399.
For “Soluble 1G4 TCR (from UniProt P01848 1-93; A0A5B9 1-129)”, the Kd [3] was 7 µM, the Kd [4] was 17 µM and the Kd [5] was 17 µM. For the same substance, the Kd [6] was 139 µM, the Kd [7] was 55 µM and the Kd [8] was 161 µM.
Work on “Soluble A6 TCR (from UniProt P01848 1-93; A0A5B9 1-129)” yielded a Kd [9] of 3 µM, a Kd [10] of 37 µM and a Kd [11] of 21 µM. The Kd [12] was 3 µM and the Kd [13] was 56 µM.
In the case of SLLMWVTQV [NYE 6V], the “force sensitivity parameter xβ, 1G4 TCR” value (1G4 TCR [1]) is reported as 0.08939 nm, the off-rate (1G4 TCR [1]; Force 4.03 pN) is reported as 0.1923 s⁻¹ and the off-rate (1G4 TCR [1]; Force 10.0633 pN) is reported as 0.2976 s⁻¹. The off-rate (1G4 TCR [1]; Force 34.1225 pN) was 0.9589 s⁻¹, the off-rate (1G4 TCR [1]; Force 53.3785 pN) was 1.216 s⁻¹ and the off-rate (1G4 TCR [1]; Force 71.3475 pN) was 1.468 s⁻¹.
In the case of “SLLMWTTQV [NYE 6T, NYE peptide variant presented on HLA-A*02:01 (pMHC), ligand of the 1G4 TCR]”, the “force sensitivity parameter xβ, 1G4 TCR” value (1G4 TCR [1]) is reported as 0.019 nm, the “bond type at forces < 20 pN, 1G4 TCR” value (1G4 TCR [1]) is reported as “slip bonds” and the “bond type under force, 1G4 TCR” value (1G4 TCR [1]) is reported as “did not display canonical slip or catch bonds”. The “zero-force off-rate (k0off) from Bell's model, 1G4 TCR” value (1G4 TCR [1]) was 0.87 s⁻¹, the “bond type under force at 25°C, 1G4 TCR” value (1G4 TCR [2]) was “catch bonds” and the Kd (1G4 TCR [14]) was 162 µM.
In the case of “SLLDWITQV [NYE 4D, NYE peptide variant presented on HLA-A*02:01 (pMHC), ligand of the 1G4 TCR]”, the “force sensitivity parameter xβ, 1G4 TCR” value (1G4 TCR [1]) is reported as 0.03228 nm, the off-rate (1G4 TCR [1]; Force 5.76043 pN) is reported as 0.2871 s⁻¹ and the off-rate (1G4 TCR [1]; Force 10.9915 pN) is reported as 0.9234 s⁻¹. The off-rate (1G4 TCR [1]; Force 35.7266 pN) was 1.088 s⁻¹, the off-rate (1G4 TCR [1]; Force 49.679 pN) was 0.8939 s⁻¹ and the off-rate (1G4 TCR [1]; Force 66.9081 pN) was 1.152 s⁻¹. The off-rate (1G4 TCR [1]; Force 92.3818 pN) was 1.23 s⁻¹, the koff_0 (1G4 TCR [1]) was -0.1852 and the Kd (1G4 TCR [14]) was 140 µM.
